{"source": "patent US12440528B2", "about": "“Methods of treating ovarian cancer with hemp extract” (Ecofibre USA Inc., priority 2021, dated 2025)"}
{"tested_on": "patient derived organoids", "assay_type": "cell-based, human", "settings": "organoid cell death", "text": "(§1) A few of the above drug products, as well as additional drugs were tried for response to patient derived organoids."}
{"compound": "Cn1nnc2c(C(N)=O)ncn2c1=O", "note": "[Temozolomide]", "% Cell Death": "40%"}
{"compound": "CC[C@]1(O)C[C@@H]2CN(CCc3c([nH]c4ccccc34)[C@@](C(=O)OC)(c3cc4c(cc3OC)N(C)[C@H]3[C@@](O)(C(=O)OC)[C@H](OC(C)=O)[C@]5(CC)C=CCN6CC[C@]43[C@@H]65)C2)C1", "note": "[Vinblastine]", "% Cell Death": "38%"}
{"compound": "Bleomycin", "% Cell Death": "53%"}
{"compound": "O=P1(NCCCl)OCCCN1CCCl", "note": "(stereo not drawn) [ifosfamide]", "% Cell Death": "No Response"}
{"compound": "CO[C@@]12[C@H](COC(N)=O)C3=C(C(=O)C(C)=C(N)C3=O)N1C[C@@H]1N[C@@H]12", "note": "[mitomycin]", "% Cell Death": "No Response"}
{"compound": "N.N.[Cl][Pt][Cl]", "note": "[Cisplatin]", "% Cell Death": "36%"}
{"compound": "CC(=O)O[C@@]12CO[C@@H]1C[C@H](O)[C@@]1(C)C(=O)[C@H](O)C3=C(C)[C@@H](OC(=O)[C@H](O)[C@@H](NC(=O)OC(C)(C)C)c4ccccc4)C[C@@](O)([C@@H](OC(=O)c4ccccc4)[C@H]21)C3(C)C", "note": "[Docetaxel]", "% Cell Death": "No Response"}
{"compound": "C=C1C[C@@H]2CC[C@@]34C[C@H]5O[C@H]6[C@@H](O3)[C@H]3O[C@H](CC[C@@H]3O[C@H]6[C@H]5O4)CC(=O)C[C@@H]3[C@@H](OC)[C@@H](C[C@H](O)CN)O[C@H]3C[C@H]3O[C@@H](CC[C@@H]1O2)C[C@@H](C)C3=C", "note": "[eribulin]", "% Cell Death": "No Response"}
{"compound": "CCC1=C[C@@H]2CN(C1)Cc1c([nH]c3ccccc13)[C@@](C(=O)OC)(c1cc3c(cc1OC)N(C)[C@H]1[C@@](O)(C(=O)OC)[C@H](OC(C)=O)[C@]4(CC)C=CCN5CC[C@]31[C@@H]54)C2", "note": "[Vinorelbine]", "% Cell Death": "45%"}
{"compound": "CO[C@H]1C(=O)[C@]2(C)[C@@H](OC)C[C@H]3OC[C@@]3(OC(C)=O)[C@H]2[C@H](OC(=O)c2ccccc2)[C@]2(O)C[C@H](OC(=O)[C@H](O)[C@@H](NC(=O)OC(C)(C)C)c3ccccc3)C(C)=C1C2(C)C", "note": "[Cabazitaxel]", "% Cell Death": "37%"}
{"compound": "CCc1c2c(nc3ccc(OC(=O)N4CCC(N5CCCCC5)CC4)cc13)-c1cc3c(c(=O)n1C2)COC(=O)[C@]3(O)CC", "note": "[Irinotecan]", "% Cell Death": "51%"}
{"compound": "O=P1(N(CCCl)CCCl)NCCCO1", "note": "(stereo not drawn) [Cyclosphosphamide]", "% Cell Death": "32%"}
{"compound": "O=C1[O][Pt]2([NH][C@@H]3CCCC[C@H]3[NH]2)[O]C1=O", "note": "[oxaliplatin]", "% Cell Death": "No Response"}
{"compound": "COc1cc([C@@H]2c3cc4c(cc3[C@@H](O[C@@H]3O[C@@H]5CO[C@@H](C)O[C@H]5[C@H](O)[C@H]3O)[C@H]3COC(=O)[C@H]23)OCO4)cc(OC)c1O", "note": "[Etoposide]", "% Cell Death": "33%"}
{"compound": "O=C1c2c(O)ccc(O)c2C(=O)c2c(NCCNCCO)ccc(NCCNCCO)c21", "note": "[Mitoxantrone]", "% Cell Death": "50%"}
{"compound": "CC[C@]1(O)C[C@H]2CN(CCc3c([nH]c4ccccc34)[C@@](C(=O)OC)(c3cc4c(cc3OC)N(C=O)[C@H]3[C@@](O)(C(=O)OC)[C@H](OC(C)=O)[C@]5(CC)C=CCN6CC[C@]43[C@@H]65)C2)C1", "note": "[vincristine]", "% Cell Death": "No Response"}
{"compound": "Nc1ccn([C@@H]2O[C@H](CO)[C@@H](O)C2(F)F)c(=O)n1", "note": "[Gemcitabine]", "% Cell Death": "56%"}
{"compound": "COc1cccc2c1C(=O)c1c(O)c3c(c(O)c1C2=O)C[C@@](O)(C(=O)CO)C[C@@H]3O[C@H]1C[C@H](N)[C@H](O)[C@H](C)O1", "note": "[Doxorubicin]", "% Cell Death": "39%"}
{"compound": "CN(C)/N=N/c1[nH]cnc1C(N)=O", "note": "[Dacarbazine]", "% Cell Death": "32%"}
{"compound": "CN(Cc1cnc2nc(N)nc(N)c2n1)c1ccc(C(=O)N[C@@H](CCC(=O)O)C(=O)O)cc1", "note": "[methotrexate]", "% Cell Death": "No Response"}
{"compound": "COc1cccc2c1C(=O)c1c(O)c3c(c(O)c1C2=O)C[C@@](O)(C(=O)CO)C[C@@H]3O[C@H]1C[C@H](N)[C@@H](O)[C@H](C)O1", "note": "[epirubicin]", "% Cell Death": "No Response"}
{"compound": "5-Fluorouaracil/Capecitabine", "% Cell Death": "61%"}
{"compound": "N[C@@H](Cc1ccc(N(CCCl)CCCl)cc1)C(=O)O", "note": "[Melphalan]", "% Cell Death": "40%"}
{"tested_on": "patient derived organoids", "assay_type": "cell-based, human", "settings": "organoid of the chemoresistant endometrial cancer patient", "text": "as §1"}
{"compound": "gemcitabine/capecitabine [GemCap]", "response of the patient's organoid": "partial response"}
